In US10023593B2, “ALK kinase inhibitor, and preparation method and uses thereof” (BEIJING PEARL BIOTECHNOLOGY LIMITED LIABILITY COMPANY, priority 2014, dated 2018):

Legend:
Wild Type ALK kinase = target: T1, Wild Type ALK kinase (Homo sapiens, UniProt Q9UM73); test: HTRF KinEASE-TK assay, inhibitory activity on wild type ALK kinase; type: biochemical; settings: wild type ALK 1 ng/μl, substrate 1 μM, 30° C. 35 minutes, read-out: Inhibition on ALK kinases (wildtype), IC50
T1 construct: purchased Sino-US Crown Bioscience, Inc. batch number ALK 20110607
T1 sequence (Q9UM73 19-1620): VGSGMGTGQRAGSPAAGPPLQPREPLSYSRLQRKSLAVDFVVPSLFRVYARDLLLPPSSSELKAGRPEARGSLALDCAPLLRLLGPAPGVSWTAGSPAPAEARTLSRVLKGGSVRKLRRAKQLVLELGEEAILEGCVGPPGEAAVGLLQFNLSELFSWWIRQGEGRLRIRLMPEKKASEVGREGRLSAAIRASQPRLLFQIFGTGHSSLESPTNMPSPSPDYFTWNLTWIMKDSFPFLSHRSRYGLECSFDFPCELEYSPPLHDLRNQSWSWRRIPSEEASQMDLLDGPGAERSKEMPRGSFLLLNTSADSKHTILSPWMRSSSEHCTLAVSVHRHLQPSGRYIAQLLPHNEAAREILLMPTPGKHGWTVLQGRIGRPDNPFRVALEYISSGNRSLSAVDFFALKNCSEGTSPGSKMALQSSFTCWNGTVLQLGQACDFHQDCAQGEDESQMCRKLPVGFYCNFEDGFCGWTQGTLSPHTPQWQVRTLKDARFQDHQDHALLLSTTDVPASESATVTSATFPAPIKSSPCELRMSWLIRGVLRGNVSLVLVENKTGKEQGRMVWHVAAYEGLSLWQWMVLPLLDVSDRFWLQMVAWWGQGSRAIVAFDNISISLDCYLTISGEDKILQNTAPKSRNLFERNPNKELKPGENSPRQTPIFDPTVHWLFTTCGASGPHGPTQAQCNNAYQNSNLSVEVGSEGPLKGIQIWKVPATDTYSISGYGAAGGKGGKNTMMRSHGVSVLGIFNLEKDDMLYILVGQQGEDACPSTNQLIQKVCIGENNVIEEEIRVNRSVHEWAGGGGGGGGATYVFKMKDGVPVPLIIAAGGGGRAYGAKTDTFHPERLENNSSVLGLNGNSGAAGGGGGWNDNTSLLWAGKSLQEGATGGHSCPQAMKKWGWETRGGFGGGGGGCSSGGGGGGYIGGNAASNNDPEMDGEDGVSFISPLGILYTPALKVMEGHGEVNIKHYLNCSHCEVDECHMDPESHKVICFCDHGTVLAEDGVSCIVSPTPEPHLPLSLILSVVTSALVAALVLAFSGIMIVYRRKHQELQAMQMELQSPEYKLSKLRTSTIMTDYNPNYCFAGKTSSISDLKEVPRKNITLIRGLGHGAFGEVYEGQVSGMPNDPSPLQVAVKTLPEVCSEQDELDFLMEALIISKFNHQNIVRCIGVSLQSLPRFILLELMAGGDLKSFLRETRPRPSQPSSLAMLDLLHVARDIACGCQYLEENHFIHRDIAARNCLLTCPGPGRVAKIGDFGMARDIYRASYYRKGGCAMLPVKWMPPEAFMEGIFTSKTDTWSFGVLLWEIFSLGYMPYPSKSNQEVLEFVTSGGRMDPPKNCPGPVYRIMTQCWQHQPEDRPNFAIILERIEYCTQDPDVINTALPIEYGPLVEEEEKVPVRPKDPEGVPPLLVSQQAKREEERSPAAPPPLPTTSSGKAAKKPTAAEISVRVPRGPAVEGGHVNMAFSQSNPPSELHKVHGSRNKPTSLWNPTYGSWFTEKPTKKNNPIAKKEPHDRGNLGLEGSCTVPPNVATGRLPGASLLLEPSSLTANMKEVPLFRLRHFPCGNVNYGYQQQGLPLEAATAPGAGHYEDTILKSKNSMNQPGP
How it was run: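 ALK kinase at 1 ng/μl and substrate at 1 μM were reacted with compound (1% DMSO) in buffer with 5 mM MgCl2 and 1 mM DTT for 35 min at 30 °C. HTRF detection used the 665/615 ratio, normalised to no-compound wells and to 10.4 μM LDK-378 wells. IC50 came from a concentration-response fit.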

NCI-H2228 cell line = test: CellTiter-Glo cell proliferation inhibition on NCI-H2228 cell line; type: cell-based; settings: Homo sapiens, NCI-H2228, 96 h, NCI-H2228 cells, 5000 cells/well, 4 days drug treatment
How it was run: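 NCI-H2228 cells, 5000/well in RPMI-1640 + 10% FBS, treated with compounds 2 h after seeding (0.5% DMSO final) for 4 days at 37° C. Viability by CellTiter-Glo luminescence; inhibition relative to DMSO control, IC50 from curve fit.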

| SMILES | IC50 (Wild Type ALK kinase) [nM] | IC50 (NCI-H2228 cell line) [nM] |
| --- | --- | --- |
| Cc1cc(Nc2ncc(Cl)c(Nc3cn(C)nc3S(=O)(=O)C(C)C)n2)c(OC2CC2)cc1C1CCN(C(=O)CC#N)CC1 [Final product 166, 1-cyano acetyl-4-(4-(5-chloro-4-(3-(isopropylsulfonyl)-1-methyl-1H-pyrazol-4-amino)pyrimidin-2-amine)-5-cyclopropoxy-2-methylphenyl)piperidine] | 3 | 42 |
| Cc1cc(Nc2ncc(Cl)c(Nc3cn(C)nc3S(=O)(=O)C(C)C)n2)c(OC2CC2)cc1[C@H]1CC[C@H](NC(C)C)CC1 [Final product 198] | 5 | 54 |
| CC(C)S(=O)(=O)c1nn(C2CC2)cc1Nc1nc(Nc2ccc(C3CCNCC3)cc2OC2CC2)ncc1Cl [Final product 16] | 4 | 39 |
| Cc1cc(Nc2ncc(Cl)c(Nc3cn(C)nc3S(=O)(=O)C(C)C)n2)c(OC2CC2)cc1C1=CCN(C)CC1 [Final product 50] | 5 | 86 |
| CC(C)S(=O)(=O)c1nn(C)cc1Nc1nc(Nc2cc(F)c(C3CCN(C)C3)cc2OC2CC2)ncc1Cl (stereo not shown) [Final product 45] | 4 | 135 |
